# In patent US20250074911A1, “MACROCYCLIC BTK INHIBITORS” (Crossfire Oncology Holding B.V., priority 2021, published 2025):
# pIC50: −log10 of the molar value.
# Tests used:
# [1] = test system: wt-BTK, BTK C481S, BTK T474I and BTK C481S/T474I expressing 293 cells; experiment: Cell based washout, pBTK (Tyr223) Western blot; set-up: species or system human; conditions: 1000 nM compound 2 hours, washed twice, harvested 0-24 hours; also cell lines expressing mutant BTK
# Experimental: In vitro cellular (mutant) BTK inhibition, and inhibitor wash-out Generation of human wt-BTK, BTK C481S, BTK T474I, and BTK C481S/T474I expressing GripTite 293 MSR cells.
# GripTite 293 MSR cells (Thermo Fisher, cat. no. R79507), here after referred to as 293 cells, were cultured in DMEM/F-12, GIutaMAX™ supplement medium (Thermo Fisher cat. no. 10565018) supplemented with 1% Penicilline/Streptomycine (Thermo Fisher cat. no. 15140122) 10% fetal bovine serum (Biowest, cat. no. Si181 0-500), 1× MEM Non-Essential Amino Acids (Thermo Fisher cat. no. 11140050) and 50 μg/ml Geneticin (Thermo Fisher cat. no. 10131035). Cells were transfected, with pEF6/V5-HisB (Thermo Fisher cat. no. V96120) expression vectors containing either full-length wildtype-BTK (canonical sequence NM_000061), BTK C481 S, BTK T474I or BTK C481 S/T474I (BaseClear) using Lipofectamine™ 3000 (Invitrogen). Because the stop codon at the end of the coding sequence of BTK has been conserved, the His-tag present in the expression vector is not being used. Immediately after transfection, cells were cultured in medium without Geneticin, and after 24 hours 50 μg/ml geneticin was added. 48 hours after transfection, medium was removed and replaced by medium containing both geneticin (50 μg/ml) and blasticidin (10 μg/ml) S HCl (Thermo Fisher, cat. no. A1113903). The resulting transfectants were cultured under blasticidin selection pressure for 18-35 passages to obtain stable wild-type BTK (wt-BTK), BTK C481S, BTK T474I, and BTK C481 S/T474I expressing cell pools. Stability of the (mutant) BTK expression in the 293 cell pools was confirmed by poly-acrylamide gel electrophoresis followed by Western blotting (FIG. 1A). […] For both experiments 10 μg of protein was separated on 4-12% Bis-Tris polyacrylamide gels.
# Wild-type BTK, BTK C481S, BTK T474I or BTK C481 S/T474I expressing 293 cells were lysed in lysis buffer supplemented with protease inhibitors (Merck, cat. no. P8340) and phosphatase inhibitors (Thermo Fisher, cat. no. 78426). The protein concentration was determined with a Pierce BCA protein assay kit (Thermo Fisher, cat. no. 23227). Lysates were diluted to a concentration of 1 μg/μl in NuPage® LDS Sample Buffer (Thermo Fisher, cat. no. NP0008) with 167 mM DTT (Acros Organics, cat. no. 10686841) and denatured for 5 minutes at 95° C. The samples (10 μg protein) were, together with a pre stained protein ladder (Thermo Fisher, cat. no. 26616), separated on 4-12% Bis-Tris polyacrylamide gels (Thermo Fisher, cat. no. NP0324BOX). Separated protein was subsequently transferred, in methanol free transfer buffer (Thermo Fisher, cat. no. 35045), to a nitrocellulose membrane (Thermo Fisher, cat. no. 88018). Blots were first immunologically stained with phospho-BTK (Tyr223) rabbit mAb (Cell Signaling, cat. no. 5082S), and beta-actin rabbit mAb (Cell Signaling, cat. no. 4967S), followed by peroxidase conjugated goat anti-rabbit IgG (Cell Signaling, cat. no. 7074S). Afterwards, antibodies were removed using Western-blot stripping buffer (Thermo Fisher cat. no. 46428) and staining was repeated with a (total-)BTK mouse mAb (Abnova, cat. no. MAB0798), followed by peroxidase conjugated horse anti-mouse IgG (Cell Signaling, cat. no. 7076S). For all blots the colour development was performed with ECL horseradish peroxidase substrate (BioRad, cat. no. 170-5060).
# Wild-type BTK, BTK C481S, BTK T474I, and BTK C481 S/T474I expressing 293 cells were growing exponentially when seeded in culture medium, without blasticidin, at a density of 2,000,000 cells/4 ml/well, in 25 cm^2 cell culture flasks (Greiner Bio-one, cat. no. 690175). Flasks were placed in a 37° C. C02-incubator for 16-24 hours after which 1 ml culture medium containing 5000 nM of the compound of Example 46 or Example 201, or Example 184, or Example 204, or Example 45 or (+/−) Loxo-305, or 0.05% DMSO (no compound) was added. 2 hours after addition of the inhibitors (0h) cells are either collected or washed twice with 5 ml culture medium. […]
# [2] = test system: wt-TMD8 diffuse large B-cell lymphoma cells; experiment: Cell proliferation assay wt-TMD8 (ATPlite, 120 hours); type: cell-based; conditions: B-cell; wt-TMD8 cells, 120 hours, ATPlite; read-out: IC50 wt-TMD8
# In short: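 Readout is percentage growth from ATPlite 1Step luminescence after 5 days (120 h) compound treatment of wt-TMD8 lymphoma cells (1600/well, RPMI-1640 + 10% FBS). Time-zero signal separates growth inhibition from cell kill; 0.3% DMSO wells without compound define maximal growth.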
pIC50 [2],SMILES,time for which level of phosphorylated BTK (pBTK (Tyr223)) is prohibited or reduced after wash-out [1]
> 7.00,C[C@@H]1CC(=O)N[C@@H]2CCC[C@H](C2)n2nc(-c3ccc(C(=O)Nc4cc(C(F)(F)F)ccn4)cc3)c3c(N)ncc(c32)/C=C/CCN1 [Example 45],at least 6 hours
> 7.00,N#Cc1ccnc(NC(=O)c2ccc(-c3nc4n5c(cnc(N)c35)/C=C/CCCCCC(=O)N[C@@H]3CCC[C@@H]4C3)cc2)c1 [Example 184],at least 6 hours

# Further lines, the compound ahead of its results:
SMILES,pIC50 [2],time for which level of phosphorylated BTK (pBTK (Tyr223)) is prohibited or reduced after wash-out [1]
Nc1ncc2c3c1c(-c1ccc(C(=O)Nc4cc(C(F)(F)F)ccn4)cc1)nn3[C@@H]1CCC[C@H](C1)NC(=O)CCOC/C=C/2 [Example 25],> 7.00,at least 6 hours
N#Cc1ccnc(NC(=O)c2ccc(-c3nc4n5c(cnc(N)c35)/C=C/CCOCCC(=O)N[C@@H]3CC[C@@H]4C3)cc2)c1 [Example 201],> 7.00,at least 6 hours
N#Cc1ccnc(NC(=O)c2ccc(-c3nc4n5c(cnc(N)c35)/C=C/CCCCCC(=O)N[C@@H]3CC[C@@H]4C3)cc2)c1 [Example 204],> 7.00,at least 6 hours
